From patent publication US9815842B2, “Pyrazolo pyrimidine derivatives and their use as MALT1 inhibitors” (Novartis AG, priority 2014, dated 2017)

What was measured:
[1] = target: C-domain of MALT1 (amino acids 329-824) (Homo sapiens (Human), UniProt Q9UDY8); experiment: MALT1 biochemical assay (fluorescence lifetime enzyme activity assay); details: 60 min pre-incubation, 2.5 nM enzyme, 1 μM peptide substrate
Protocol: The readout parameter is the increase of fluorescence lifetime over time, proportional to enzyme activity.
The assay employs a short peptide substrate labeled with the single fluorophore PT14 as a fluorescence lifetime probe sensitive to the cleavage state of the substrate (PT14: 6-(9-oxo-9H-acridin-10-yl)-hexanoate, AssayMetrics, UK). […] The assay buffer consists of 200 mM Tris/HCl at pH 7.5, 0.8 M Na citrate, 100 μM EGTA, 100 μM DTT and 0.05% (w/v) CHAPS. […] Test compounds were dissolved in 100% (v/v) DMSO or a mixture containing 90% (v/v) DMSO and 10% (v/v) H2O at a stock concentration of 100 mM. Serial dilutions of test compounds were prepared using either 100% (v/v) DMSO or a mixture containing 90% (v/v) DMSO and 10% (v/v) H2O.

[2] = system: Human IL2 promoter; experiment: Human IL2 promoter reporter gene assay (RGA) in Jurkat cells; type: cell-based; details: Jurkat clone K22 290_H23, anti-CD28 mAb + PMA stimulation 5.5 h
Protocol: Human IL2 Promoter Reporter Gene Assay (RGA) in Jurkat Cells
The transfected Jurkat clone K22 290_H23 was propagated in RPMI 1640 supplemented with 10% heat inactivated fetal calf serum, 50 μM 2-mercaptoethanol and 1 mg/ml Geneticin. The cell concentration should not exceed 1×10e6/ml during culturing. The cells should not exceed passage 30. Prior to the assay the cells were washed and prepared to the concentration of 2×10e6 cells/ml.
Compound dilutions were made as 2×-concentrated solutions then diluted 1/2 by addition to cells. Two hundred and fifty μl of compound dilution and 250 μl of cells were mixed together in wells of a 96-deep well plate. Cells/compounds premix were incubated 30 min at 37° C. and 5% CO2 directly in the deep well plate.
After pre-incubation of cells with compounds, cells were stimulated with anti-CD28 mAb (clone 15E8) at 3 μg/ml+PMA at 1 μg/ml. Both co-stimulants were diluted in culture medium at a 10×-concentrated solution. 10 μl of co-stimulants were pipetted into the white 96-well plates and 100 μl of cell/compound mix was immediately added in duplicates. The cells were stimulated for 5.5 h at 37° C. and 5% CO2.
After cell stimulation, 50 μl of BriteLitePlus reagent (Perkin Elmer) was added to each well and the bioluminescence was measured with a Wallac EnVision reader (Perkin Elmer).

C-domain of MALT1 (amino acids 329-824), sequence (Q9UDY8 329-824): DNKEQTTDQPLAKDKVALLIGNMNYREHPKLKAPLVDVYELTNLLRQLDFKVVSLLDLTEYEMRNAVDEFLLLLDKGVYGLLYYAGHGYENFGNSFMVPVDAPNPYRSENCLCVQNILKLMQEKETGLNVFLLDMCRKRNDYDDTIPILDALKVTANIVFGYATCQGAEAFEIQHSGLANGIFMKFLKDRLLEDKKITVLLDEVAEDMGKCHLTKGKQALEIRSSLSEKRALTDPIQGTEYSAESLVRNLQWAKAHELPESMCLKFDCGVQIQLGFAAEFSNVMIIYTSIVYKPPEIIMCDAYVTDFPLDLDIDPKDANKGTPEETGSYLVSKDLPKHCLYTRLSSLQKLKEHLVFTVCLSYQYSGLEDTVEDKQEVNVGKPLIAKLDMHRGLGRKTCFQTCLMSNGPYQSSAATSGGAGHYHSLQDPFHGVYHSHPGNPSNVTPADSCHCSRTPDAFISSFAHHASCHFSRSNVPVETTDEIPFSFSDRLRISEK

Row | Structure (SMILES) | IC50 [1] | IC50 [2]
1 | COCC(OC)c1c(NC(=O)Nc2ccnc(C(F)(F)F)c2)cnc2cc(Cl)nn12 (stereo not drawn) [Example 109, 1-(2-chloro-7-(1,2-dimethoxyethyl)pyrazolo[1,5-a]pyrimidin-6-yl)-3-(2-(trifluoromethyl)pyridin-4-yl)urea] | 53 nM | 218 nM
2 | COC[C@@H](OC)c1c(NC(=O)Nc2cnc(-n3nccn3)c(Cl)c2)cnc2cc(Cl)nn12 [Example 127, (S)-1-(5-chloro-6-(2H-1,2,3-triazol-2-yl)pyridin-3-yl)-3-(2-chloro-7-(1,2-dimethoxyethyl)pyrazolo[1,5-a]pyrimidin-6-yl)urea] | 9 nM | 78 nM
3 | CO[C@@H](C)c1c(NC(=O)Nc2ccnc(C#N)c2)cnc2cc(Cl)nn12 [Example 105, (S)-1-(2-chloro-7-(1-methoxyethyl)pyrazolo[1,5-a]pyrimidin-6-yl)-3-(2-cyanopyridin-4-yl)urea] | 11 nM | 59 nM
4 | C[C@H](O[C@@H]1CCOC1)c1c(NC(=O)Nc2cnc(-n3nccn3)c(Cl)c2)cnc2cc(Cl)nn12 [Example 100, 1-(5-chloro-6-(2H-1,2,3-triazol-2-yl)pyridin-3-yl)-3-(2-chloro-7-((S)-1-(((R)-tetrahydrofuran-3-yl)oxy)ethyl)pyrazolo[1,5-a]pyrimidin-6-yl)urea] | 19 nM | 84 nM
5 | CC(C)c1c(NC(=O)Nc2cnc(-c3ccnn3C)c(Cl)c2)cnc2cc(Cl)nn12 [Example 29, 1-(5-chloro-6-(1-methyl-1H-pyrazol-5-yl)pyridin-3-yl)-3-(2-chloro-7-isopropylpyrazolo[1,5-a]pyrimidin-6-yl)urea] | 370 nM | 
6 | CO[C@H](C)c1c(NC(=O)Nc2cnc(-n3nccn3)c(Cl)c2)cnc2cc(Cl)nn12 [Example 46, (R)-1-(5-chloro-6-(2H-1,2,3-triazol-2-yl)pyridin-3-yl)-3-(2-chloro-7-(1-methoxyethyl)pyrazolo[1,5-a]pyrimidin-6-yl)urea] |  | 82 nM
7 | CN1CCOCC1c1c(NC(=O)Nc2cnc(-n3nccn3)c(Cl)c2)cnc2cc(Cl)nn12 (stereo not drawn) [Example 125, 1-(5-chloro-6-(2H-1,2,3-triazol-2-yl)pyridin-3-yl)-3-(2-chloro-7-(4-methylmorpholin-3-yl)pyrazolo[1,5-a]pyrimidin-6-yl)urea] | 9 nM | 138 nM
8 | COCC1(c2c(NC(=O)Nc3cncc(C(F)(F)F)c3)cnc3cc(Cl)nn23)CCCO1 (stereo not drawn) [Example 106, 1-(2-chloro-7-(2-(methoxymethyl)tetrahydrofuran-2-yl)pyrazolo[1,5-a]pyrimidin-6-yl)-3-(5-(trifluoromethyl)pyridin-3-yl)urea] | 8 nM | 484 nM
9 | O=C(Nc1cnc(-n2nccn2)c(Cl)c1)Nc1cnc2cc(Cl)nn2c1C1CCOCC1 [Example 58, 1-(5-chloro-6-(2H-1,2,3-triazol-2-yl)pyridin-3-yl)-3-(2-chloro-7-(tetrahydro-2H-pyran-4-yl)pyrazolo[1,5-a]pyrimidin-6-yl)urea] |  | 267 nM
10 | O=C(Nc1cnc(-n2nccn2)c(Cl)c1)Nc1cnc2cc(Cl)nn2c1C1COCCN1 (stereo not drawn) [Example 123, 1-(5-chloro-6-(2H-1,2,3-triazol-2-yl)pyridin-3-yl)-3-(2-chloro-7-(morpholin-3-yl)pyrazolo[1,5-a]pyrimidin-6-yl)urea] |  | 199 nM
11 | COC[C@H](C)c1c(NC(=O)Nc2cnc(-n3nccn3)c(C(F)(F)F)c2)cnc2cc(Cl)nn12 [Example 111, (R)-1-(6-(2H-1,2,3-triazol-2-yl)-5-(trifluoromethyl)pyridin-3-yl)-3-(2-chloro-7-(1-methoxypropan-2-yl)pyrazolo[1,5-a]pyrimidin-6-yl)urea] | 3 nM | 54 nM
12 | CC(C)c1c(NC(=O)Nc2cnc(-n3nccn3)c(Cl)c2)cnc2cc(Cl)nn12 [Example 21, 1-(5-chloro-6-(2H-1,2,3-triazol-2-yl)pyridin-3-yl)-3-(2-chloro-7-isopropylpyrazolo[1,5-a]pyrimidin-6-yl)urea] |  | 104 nM
13 | COCCO[C@@H](C)c1c(NC(=O)Nc2cnc(OC(F)F)c(Cl)c2)cnc2cc(Cl)nn12 [Example 97, (S)-1-(5-chloro-6-(difluoromethoxy)pyridin-3-yl)-3-(2-chloro-7-(1-(2-methoxyethoxy)ethyl)pyrazolo[1,5-a]pyrimidin-6-yl)urea] | 3 nM | 68 nM
14 | COC[C@@H](C)c1c(NC(=O)Nc2cnc(-n3nccn3)c(C(F)(F)F)c2)cnc2cc(Cl)nn12 [Example 110, (S)-1-(6-(2H-1,2,3-triazol-2-yl)-5-(trilfuoromethyl)pyridin-3-yl)-3-(2-chloro-7-(1-methoxypropan-2-yl)pyrazolo[1,5-a]pyrimidin-6-yl)urea] | 9 nM | 115 nM
15 | CO[C@@H](C)c1c(NC(=O)Nc2cncc(C#N)c2)cnc2cc(Cl)nn12 [Example 8, (S)-1-(2-chloro-7-(1-methoxyethyl)pyrazolo[1,5-a]pyrimidin-6-yl)-3-(5-cyanopyridin-3-yl)urea] |  | 33 nM

Other lines, results leading:

Row | IC50 [1] | IC50 [2] | Structure (SMILES)
16 | 10 nM | 49 nM | CO[C@@H](C)c1c(NC(=O)Nc2cnc(-n3nccn3)c(Cl)c2)cnc2cc(C#N)nn12 [Example 96, (S)-1-(5-chloro-6-(2H-1,2,3-tirazol-2-yl)pyridin-3-yl)-3-(2-cyano-7-(1-methoxyethyl)pyrazolo[1,5-a]pyrimidin-6-yl)urea]
17 | 3 nM | 46 nM | CO[C@@H](C)c1c(NC(=O)Nc2cnc(-n3nccn3)c(C(F)F)c2)cnc2cc(Cl)nn12 [Example 89, (S)-1-(2-chloro-7-(1-methoxyethyl)pyrazolo[1,5-a]pyrimidin-6-yl)-3-(5-(difluoromethyl)-6-(2H-1,2,3-triazol-2-yl)pyridin-3-yl)urea]
18 | 5 nM | 25 nM | C[C@H](O[C@H]1CCOC1)c1c(NC(=O)Nc2cnc(-n3nccn3)c(Cl)c2)cnc2cc(Cl)nn12 [Example 101, 1-(5-chloro-6-(2H-1,2,3-triazol-2-yl)pyridin-3-yl)-3-(2-chloro-7-((S)-1-(((S)-tetrahydrofuran-3-yl)oxy)ethyl)pyrazolo[1,5-a]pyrimidin-6-yl)urea]
19 |  | 19 nM | CO[C@@H](C)c1c(NC(=O)Nc2cnc(-n3nccn3)c(Cl)c2)cnc2cc(Cl)nn12 [Example 10, (S)-1-(5-chloro-6-(2H-1,2,3-triazol-2-yl)pyridin-3-yl)-3-(2-chloro-7-(1-methoxyethyl)pyrazolo[1,5-a]pyrimidin-6-yl)urea]
20 | 3 nM | 14 nM | C[C@H](OC[C@H]1CCOC1)c1c(NC(=O)Nc2cnc(-n3nccn3)c(Cl)c2)cnc2cc(Cl)nn12 [Example 102, 1-(5-chloro-6-(2H-1,2,3-triazol-2-yl)pyridin-3-yl)-3-(2-chloro-7-((S)-1-(((S)-tetrahydrofuran-3-yl)methoxy)ethyl)pyrazolo[1,5-a]pyrimidin-6-yl)urea]
21 | 21 nM | 41 nM | CO[C@@H](C)c1c(NC(=O)Nc2cc(Cl)cnc2OCCN(C)C)cnc2cc(Cl)nn12 [Example 99, (S)-1-(5-chloro-2-(2-(dimethylamino)ethoxy)pyridin-3-yl)-3-(2-chloro-7-(1-methoxyethyl)pyrazolo[1,5-a]pyrimidin-6-yl)urea]
22 | 8 nM | 41 nM | CN[C@H](c1c(NC(=O)Nc2cnc(-n3nccn3)c(Cl)c2)cnc2cc(Cl)nn12)C(C)C [Example 124, (S)-1-(5-chloro-6-(2H-1,2,3-triazol-2-yl)pyridin-3-yl)-3-(2-chloro-7-(2-methyl-1-(methylamino)propyl)pyrazolo[1,5-a]pyrimidin-6-yl)urea]
23 | 9 nM | 46 nM | CO[C@@H](C)c1c(NC(=O)Nc2ccnc(C(F)F)c2)cnc2cc(Cl)nn12 [Example 92, (S)-1-(2-chloro-7-(1-methoxyethyl)pyrazolo[1,5-a]pyrimidin-6-yl)-3-(2-(difluoromethyl)pyridin-4-yl)urea]
24 | 2 nM | 13 nM | CO[C@@H](C)c1c(NC(=O)Nc2cnc(-n3nccn3)c(Cl)c2)cnc2cc(F)nn12 [Example 95, (S)-1-(5-chloro-6-(2H-1,2,3-triazol-2-yl)pyridin-3-yl)-3-(2-fluoro-7-(1-methoxyethyl)pyrazolo[1,5-a]pyrimidin-6-yl)urea]
25 |  | 44 nM | CO[C@H](c1c(NC(=O)Nc2cnc(-n3nccn3)c(Cl)c2)cnc2cc(Cl)nn12)[C@@H](C)OC [Example 98, 1-(5-chloro-6-(2H-1,2,3-triazol-2-yl)pyridin-3-yl)-3-(2-chloro-7-((1R,2R)-1,2-dimethoxypropyl)pyrazolo[1,5-a]pyrimidin-6-yl)urea]
